Like-named read-outs stand apart in the source and are kept apart here.
Tests used:
[1] = target: T1, hERG potassium ion channel (Homo sapiens, UniProt Q12809); assay: Predictor hERG Fluorescence Polarization Assay; type: binding; conditions: for IC50: hERG fluorescence polarization
T1 construct: purchased
Description: In cardiac muscle cells, hERG (human Ether-a-go-go Related Gene) coded potassium channel mediates delayed rectifier potassium currents (IKr). IKr inhibition is the most important mechanism of QT interval prolongation caused by a drug.
Employing the Predictor™ hERG Fluorescence Polarization Assay, the effect of the compounds on a hERG potassium ion channel was detected.

[2] = tested on: hepatitis type B virus (HBV); assay: Inhibition of HBV DNA replication in HepG2.2.15 cells; type: cell-based; conditions: HepG2.2.15, HBV DNA replication
Procedure: The inhibitory effect of the compounds of the present invention on hepatitis type B virus (HBV) was tested. Cytotoxicity and effects on nucleic acid (DNA) replication level of the virus (HBV) of the compounds of the present invention were tested at a virus-cell level.
HepG2.2.15 cells in the logarithmic growth phase were plated in a 96-well plate at a cell concentration of 40 cells per μL. The cells were incubated in a 5% CO2 incubator at 37° C. for 3 days; and the culture medium was replaced with a new one ([…]) before adding compounds. The concentration of the stock solution of each Example compound is 200 μM.

[3] = Cytotoxicity detection (CellTiter-Glo); type: cell-based; conditions: human, HepG2.2.15 cells, highest concentration 150 μM
Procedure: The test compounds were diluted to 30 mM with DMSO, with 30 mM as the highest concentration, the compounds were subjected to three-fold serial dilution to various concentrations. 0.2 μL of the compounds at various concentrations were added to a 384-well plate, HepG2.2.15 cells having a concentration of 2000 cells per 50 μL were added to each well, and the highest concentration of the test compounds was 150 μM. 1 μL of DMSO was added to corresponding wells for control. The plate was incubated in a 5% CO2 incubator at 37° C. for 4 days; and 50 μL of CellTiter-Glo was added to each well after 4 days. The plate was read for detection, and a half cytotoxic concentration (CC50) was calculated.

[4] = In vivo pharmacokinetics (PK) in rats; conditions: male, SD, rat; for Kp: liver/plasma, 2 mg/kg
Procedure: The test compounds were administrated to male SD rats by intravenous (iv) and by gavage (po), respectively, the doses of the iv and po administration were respectively 1 mg/kg and 2 mg/kg, the solvent system for iv administration was 5% DMSO:5% solutol:90% physiological saline, and the solvent system for po administration was 0.5% MC. Blood was collected at multiple time points after iv administration and po administration for the PK study. Plasma samples and liver tissue samples were subjected to protein precipitation, followed by LC-MS/MS analysis. The mass spectrometer was API 5500, and the liquid chromatograph is a Waters ACQUITY I CLASS system; the chromatographic column was an Agela ASB C18 column (2.1 mm×50 mm, 1.9 μm); mobile phase A was water+0.1% formic acid, and phase B was acetonitrile; the flow rate was 0.4 mL/min, and the column temperature was 40° C. The ion source was an ESI source in a positive ion mode, and the scanning manner is multiple reaction monitoring (MRM).

T1 sequence (Q12809 whole entry): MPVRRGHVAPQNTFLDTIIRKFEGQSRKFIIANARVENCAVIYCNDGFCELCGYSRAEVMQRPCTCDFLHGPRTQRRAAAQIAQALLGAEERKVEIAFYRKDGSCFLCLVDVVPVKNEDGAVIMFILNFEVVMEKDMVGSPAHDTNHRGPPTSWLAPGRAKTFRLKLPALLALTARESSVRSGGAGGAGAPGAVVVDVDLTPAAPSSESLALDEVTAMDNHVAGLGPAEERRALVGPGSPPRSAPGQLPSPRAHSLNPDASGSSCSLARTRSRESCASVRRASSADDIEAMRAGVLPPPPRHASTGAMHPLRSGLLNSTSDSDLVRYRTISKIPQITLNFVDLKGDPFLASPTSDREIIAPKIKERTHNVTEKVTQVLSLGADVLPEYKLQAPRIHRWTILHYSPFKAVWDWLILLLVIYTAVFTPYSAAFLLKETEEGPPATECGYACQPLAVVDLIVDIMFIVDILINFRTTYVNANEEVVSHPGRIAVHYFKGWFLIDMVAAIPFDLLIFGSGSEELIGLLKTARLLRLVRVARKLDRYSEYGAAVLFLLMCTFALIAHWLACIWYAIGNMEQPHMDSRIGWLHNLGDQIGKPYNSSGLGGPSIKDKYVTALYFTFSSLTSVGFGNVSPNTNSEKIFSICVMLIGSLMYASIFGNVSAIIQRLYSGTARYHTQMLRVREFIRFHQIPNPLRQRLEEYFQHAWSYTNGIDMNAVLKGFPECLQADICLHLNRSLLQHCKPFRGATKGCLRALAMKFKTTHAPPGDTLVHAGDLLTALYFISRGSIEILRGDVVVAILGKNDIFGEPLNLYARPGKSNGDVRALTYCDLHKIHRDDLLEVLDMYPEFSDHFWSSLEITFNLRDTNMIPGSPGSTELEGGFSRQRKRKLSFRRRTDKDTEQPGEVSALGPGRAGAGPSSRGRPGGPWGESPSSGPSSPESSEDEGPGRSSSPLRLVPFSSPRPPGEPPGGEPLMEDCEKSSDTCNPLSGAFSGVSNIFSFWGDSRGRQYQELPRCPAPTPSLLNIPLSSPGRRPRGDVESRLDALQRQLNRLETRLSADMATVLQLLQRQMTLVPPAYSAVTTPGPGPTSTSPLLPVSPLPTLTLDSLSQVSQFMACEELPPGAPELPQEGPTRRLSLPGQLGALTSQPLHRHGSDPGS

## CCOC(=O)C1=C(CN2CCC(O)C(F)(F)C2)NC(c2nccs2)=N[C@H]1c1ccc(F)cc1Cl (single isomer, unassigned) [Isomer B of Example 4]
[1]
  IC50: > 10000 nM
[2]
  EC50: 34.7 nM
[3]
  CC50 at 4 days: 51300 nM

## CCOC(=O)C1=C(CN2CC(F)(F)C2)NC(c2nccs2)=N[C@H]1c1ccc(F)cc1Cl [10-7 of Example 6, (R)-ethyl 4-(2-chloro-4-fluorophenyl)-6-((3,3-difluoroazetidin-1-yl)methyl)-2-(thiazol-2-yl)-1,4-dihydropyrimidine-5-carboxylate]
[2]
  EC50: 102 nM
[3]
  CC50 at 4 days: 130000 nM

## CCOC(=O)C1=C(CN2C[C@@H](O)[C@H](F)C2)NC(c2nccs2)=N[C@H]1c1ccc(F)cc1Cl [10-34 of Example 9, (R)-ethyl 4-(2-chloro-4-fluorophenyl)-6-(((3R,4R)-3-fluoro-4-hydroxypyrrolidin-1-yl)methyl)-2-(thiazol-2-yl)-1,4-dihydropyrimidine-5-carboxylate]
[2]
  EC50: 13.2 nM
[3]
  CC50 at 4 days: 79600 nM

## CCOC(=O)C1=C(CN2C[C@@H](F)[C@H](OCC(=O)O)C2)NC(c2nccs2)=N[C@H]1c1ccc(F)cc1Cl [10-36 of Example 10, 2-(((3R,4R)-1-(((R)-6-(2-chloro-4-fluorophenyl)-5-(ethoxycarbonyl)-2-(thiazol-2-yl)-3,6-dihydropyrimidin-4-yl)methyl)-4-fluoropyrrolidin-3-yl)oxy)acetic acid]
[1]
  IC50: > 10000 nM
[2]
  EC50: 98.1 nM
[3]
  CC50 at 4 days: > 150000 nM

## CCOC(=O)C1=C(CN2CC(O)C(F)(F)C2)NC(c2nccs2)=N[C@H]1c1ccc(F)cc1Cl (stereo partly drawn) [10-40 of Example 11, (4R)-ethyl 4-(2-chloro-4-fluorophenyl)-6-((3,3-difluoro-4-hydroxypyrrolidin-1-yl)methyl)-2-(thiazol-2-yl)-1,4-dihydropyrimidine-5-carboxylate]
[1]
  IC50: > 10000 nM
[2]
  EC50: 6.2 nM
[3]
  CC50 at 4 days: 73500 nM

## CCOC(=O)C1=C(CN2CC(OCC(=O)O)C(F)(F)C2)NC(c2nccs2)=N[C@H]1c1ccc(F)cc1Cl (stereo partly drawn) [10-42 of Example 12, 2-((1-(((R)-6-(2-chloro-4-fluorophenyl)-5-(ethoxycarbonyl)-2-(thiazol-2-yl)-3,6-dihydropyrimidin-4-yl)methyl)-4,4-difluoropyrrolidin-3-yl)oxy)acetic acid]
[1]
  IC50: > 10000 nM
[2]
  EC50: 164 nM
[3]
  CC50 at 4 days: > 150000 nM

## CCOC(=O)C1=C(CN2CCC(O)C(F)(F)C2)NC(c2nccs2)=NC1c1ccc(F)cc1Cl (centres unmarked) [10-88 of Example 1, ethyl 4-(2-chloro-4-fluorophenyl)-6-((3,3-difluoro-4-hydroxypiperidin-1-yl)methyl)-2-(thiazol-2-yl)-1,4-dihydropyrimidine-5-carboxylate]
[1]
  IC50: > 10000 nM
[2]
  EC50: 24.7 nM
[3]
  CC50 at 4 days: 61100 nM

## CCOC(=O)C1=C(CN2CCC(O)C(F)(F)C2)NC(c2nccs2)=NC1c1ccc(F)cc1Br (centres unmarked) [10-93 of Example 2, ethyl 4-(2-bromo-4-fluorophenyl)-6-((3,3-difluoro-4-hydroxypiperidin-1-yl)methyl)-2-(thiazol-2-yl)-1,4-dihydropyrimidine-5-carboxylate]
[1]
  IC50: > 10000 nM

## CCOC(=O)C1=C(CN2CC(COCC(=O)O)CC(F)(F)C2)NC(c2nccs2)=N[C@H]1c1ccc(F)cc1Cl (stereo partly drawn) [10-136 of Example 16, 2-((1-(((R)-6-(2-chloro-4-fluorophenyl)-5-(ethoxycarbonyl)-2-(thiazol-2-yl)-3,6-dihydropyrimidin-4-yl)methyl)-5,5-difluoropiperidin-3-yl)methoxy)acetic Acid]
[2]
  EC50: 110 nM
[3]
  CC50 at 4 days: 122000 nM

## CCOC(=O)C1=C(CN2CCOCC2COCC(=O)O)NC(c2nccs2)=N[C@H]1c1ccc(F)cc1Cl (stereo partly drawn) [10-162 of Example 15, 2-((4-(((R)-6-(2-chloro-4-fluorophenyl)-5-(ethoxycarbonyl)-2-(thiazol-2-yl)-3,6-dihydropyrimidin-4-yl)methyl)morpholin-3-yl)methoxy)acetic Acid]
[2]
  EC50: 213 nM
[3]
  CC50 at 4 days: > 150000 nM

## CCOC(=O)C1=C(CN2CCOC(/C=C/C(=O)O)C2)NC(c2nccs2)=N[C@H]1c1ccc(F)cc1Cl (stereo partly drawn) [10-180 of Example 14, (E)-3-(4-(((R)-6-(2-chloro-4-fluorophenyl)-5-(ethoxycarbonyl)-2-(thiazol-2-yl)-3,6-dihydropyrimidin-4-yl)methyl)morpholin-2-yl)acrylic Acid]
[2]
  EC50: 23.5 nM
[3]
  CC50 at 4 days: > 150000 nM

## CCOC(=O)C1=C(CN2CCOCC2/C=C/C(=O)O)NC(c2nccs2)=N[C@H]1c1ccc(F)cc1Cl (stereo partly drawn) [10-182 of Example 13, (E)-3-(4-(((R)-6-(2-chloro-4-fluorophenyl)-5-(ethoxycarbonyl)-2-(thiazol-2-yl)-3,6-dihydropyrimidin-4-yl)methyl)morpholin-3-yl)acrylic Acid]
[2]
  EC50: 61.8 nM
[3]
  CC50 at 4 days: > 150000 nM

## COC(=O)C1=C(CN2CCO[C@H](/C=C/C(=O)O)C2)NC(c2nccs2)=N[C@H]1c1ccc(F)cc1Br [10-229 of Example 28, (E)-3-((R)-4-(((R)-6-(2-bromo-4-fluorophenyl)-5-(methoxycarbonyl)-2-(thiazol-2-yl)-3,6-dihydropyrimidin-4-yl)methyl)morpholin-2-yl)acrylic Acid]
[2]
  EC50: 8.3 nM
[3]
  CC50 at 4 days: > 150000 nM

## COC(=O)C1=C(CN2CCO[C@H](/C=C/C(=O)O)C2)NC(c2nccs2)=N[C@H]1c1ccc(F)c(F)c1Cl [10-237 of Example 30, (E)-3-((R)-4-(((R)-6-(2-chloro-3,4-difluorophenyl)-5-(methoxycarbonyl)-2-(thiazol-2-yl)-3,6-dihydropyrimidin-4-yl)methyl)morpholin-2-yl)acrylic Acid]
[2]
  EC50: 10.9 nM
[3]
  CC50 at 4 days: > 150000 nM

## COC(=O)C1=C(CN2CCO[C@H](/C=C/C(=O)O)C2)NC(c2nccs2)=N[C@H]1c1ccc(F)c(F)c1Br [10-238 of Example 31, (E)-3-((R)-4-(((R)-6-(2-bromo-3,4-difluorophenyl)-5-(methoxycarbonyl)-2-(thiazol-2-yl)-3,6-dihydropyrimidin-4-yl)methyl)morpholin-2-yl)acrylic Acid]
[2]
  EC50: 10.2 nM
[3]
  CC50 at 4 days: > 150000 nM

## COC(=O)C1=C(CN2CCO[C@H](/C=C/C(=O)O)C2)NC(c2nccs2)=N[C@H]1c1ccc(F)c(F)c1C [10-239 of Example 32, (E)-3-((R)-4-(((S)-6-(3,4-difluoro-2-methylphenyl)-5-(methoxycarbonyl)-2-(thiazol-2-yl)-3,6-dihydropyrimidin-4-yl)methyl)morpholin-2-yl)acrylic Acid]
[2]
  EC50: 28.9 nM
[3]
  CC50 at 4 days: > 150000 nM

## COC(=O)C1=C(CN2CCO[C@H](/C=C/C(=O)O)C2)NC(c2nccs2)=N[C@H]1c1cccc(F)c1Cl [10-240 of Example 33, (E)-3-((R)-4-(((R)-6-(2-chloro-3-fluorophenyl)-5-(methoxycarbonyl)-2-(thiazol-2-yl)-3,6-dihydropyrimidin-4-yl)methyl)morpholin-2-yl)acrylic Acid]
[2]
  EC50: 21.1 nM
[3]
  CC50 at 4 days: > 150000 nM

## CCOC(=O)C1=C(CN2CCO[C@H](CCC(=O)O)C2)NC(c2nccs2)=N[C@H]1c1ccc(F)cc1Cl [Control compound 2, reference compound]
[1]; criterion: IC50 greater than 10 μM = no inhibitory effect
  inhibitory effect on the hERG potassium ion channel (in words): significant inhibitory effect
[1]
  IC50: 1000 to 10000 nM
[4]; plasma, po, by gavage, 2.00 mg/kg, read-out: bioavailability (F)
  bioavailability: 20.9%
[4]; po, po, 2.00 mg/kg, AUCINF liver/plasma, read-out: amount of exposure in liver relative to that in plasma
  Kp: ~1.5
[4]; po, po, 2.00 mg/kg, Cmax liver/plasma, read-out: blood-drug concentration in liver relative to that in plasma
  Kp: ~0.5
[4]; iv, 1.00 mg/kg, plasma
  AUC(0-inf): 2150 ng·h/mL
  Cmax: 2470 ng/mL
[4]; po, 2.00 mg/kg, liver
  AUC(0-inf): 1490 ng·h/mL
  Cmax: 547 ng/mL
[4]; po, 2.00 mg/kg, plasma
  AUC(0-inf): 897 ng·h/mL
  Cmax: 1250 ng/mL
[2]
  EC50: 89 nM
